Data from patent publication US20250223268A1, “4-Methylsulfonylbenzamide Compound, Preparation Method, Herbicidal Composition And Use” (Jiangsu Flag Chemical Industry Co., Ltd., priority 2022, published 2025).

What was measured:
Assay in all cases: Greenhouse herbicidal activity assay, post-emergence
Assay type in all cases: in vivo
[1] = tested on: Echinochloa crusgalli; settings: Post-emergence test, rate 150 g a.i./hm^2, grade by fresh weight inhibition rate; for pest or weed control at 150 g/ha: Echinochloa crus-galli, read-out: Control efficacy grade, Echinochloa crusgalli
Outline: (§1)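 Weeds were sown in nutrient soil in 7 cm pots and grown in a growth chamber to the 3-6 leaf stage, then foliar-sprayed, air-dried and returned to the chamber. Fresh weight inhibition was scored 14-21 days later in bands from A (≥80% to 100%) to E (<20%).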

[2] = tested on: Digitaria sanguinalis; settings: Post-emergence test, rate 150 g a.i./hm^2, grade by fresh weight inhibition rate; for pest or weed control at 150 g/ha: Digitaria sanguinalis, read-out: Control efficacy grade, Digitaria sanguinalis
Outline: as §1

[3] = tested on: Eclipta prostrata; settings: Post-emergence test, rate 150 g a.i./hm^2, grade by fresh weight inhibition rate; for pest or weed control at 150 g/ha: Eclipta prostrata, read-out: Control efficacy grade, Eclipta prostrata
Outline: as §1

[4] = tested on: Leptochloa chinensis; settings: Post-emergence test, rate 150 g a.i./hm^2, grade by fresh weight inhibition rate; for pest or weed control at 150 g/ha: Dinebra chinensis, read-out: Control efficacy grade, Leptochloa chinensis
Outline: as §1

[5] = tested on: Cyperus iria; settings: Post-emergence test, rate 150 g a.i./hm^2, grade by fresh weight inhibition rate; for pest or weed control at 150 g/ha: Cyperus iria, read-out: Control efficacy grade, Cyperus iria
Outline: as §1

SMILES	Control efficacy grade, Echinochloa crusgalli [1]	Control efficacy grade, Digitaria sanguinalis [2]	Control efficacy grade, Eclipta prostrata [3]	Control efficacy grade, Leptochloa chinensis [4]	Control efficacy grade, Cyperus iria [5]	pest or weed control at 150 g/ha [1]	pest or weed control at 150 g/ha [2]	pest or weed control at 150 g/ha [3]	pest or weed control at 150 g/ha [4]	pest or weed control at 150 g/ha [5]
CCCS(=O)(=O)c1c(S(C)(=O)=O)ccc(C(=O)Nc2ncnn2C)c1Cl [Compound 2-5]	B (Fresh weight inhibition rate≥260% to <80%)	B (Fresh weight inhibition rate≥260% to <80%)	A (Fresh weight inhibition rate≥80% to 100%)	A (Fresh weight inhibition rate≥80% to 100%)	A (Fresh weight inhibition rate≥80% to 100%)	–	–	–	–	–
CC(C)Sc1c(S(C)(=O)=O)ccc(C(=O)Nc2ncnn2C)c1Cl [Compound 2-6, 2-chloro-3-(isopropylthio)-N-(1-methyl-1H-1,2,4-triazol-5-yl)-4-(methylsulfonyl)benzamide]	–	–	–	–	–	80 to 100%	80 to 260%	80 to 100%	80 to 100%	80 to 100%
Cn1ncnc1NC(=O)c1ccc(S(C)(=O)=O)c(SCC2CC2)c1Cl [Compound 2-27]	A (Fresh weight inhibition rate≥80% to 100%)	A (Fresh weight inhibition rate≥80% to 100%)	A (Fresh weight inhibition rate≥80% to 100%)	A (Fresh weight inhibition rate≥80% to 100%)	A (Fresh weight inhibition rate≥80% to 100%)	–	–	–	–	–
Cn1ncnc1NC(=O)c1ccc(S(C)(=O)=O)c(SC2CCC2)c1Cl [Compound 2-37]	A (Fresh weight inhibition rate≥80% to 100%)	B (Fresh weight inhibition rate≥260% to <80%)	A (Fresh weight inhibition rate≥80% to 100%)	A (Fresh weight inhibition rate≥80% to 100%)	A (Fresh weight inhibition rate≥80% to 100%)	–	–	–	–	–
C=CCSc1c(S(C)(=O)=O)ccc(C(=O)Nc2ncnn2C)c1Cl [Compound 2-67]	B (Fresh weight inhibition rate≥260% to <80%)	B (Fresh weight inhibition rate≥260% to <80%)	A (Fresh weight inhibition rate≥80% to 100%)	B (Fresh weight inhibition rate≥260% to <80%)	A (Fresh weight inhibition rate≥80% to 100%)	–	–	–	–	–
C=CCS(=O)(=O)c1c(S(C)(=O)=O)ccc(C(=O)Nc2ncnn2C)c1Cl [Compound 2-71]	A (Fresh weight inhibition rate≥80% to 100%)	A (Fresh weight inhibition rate≥80% to 100%)	A (Fresh weight inhibition rate≥80% to 100%)	A (Fresh weight inhibition rate≥80% to 100%)	A (Fresh weight inhibition rate≥80% to 100%)	–	–	–	–	–
CCCSc1c(S(C)(=O)=O)ccc(C(=O)Nc2nnc(C)o2)c1Cl [Compound 3-1]	A (Fresh weight inhibition rate≥80% to 100%)	A (Fresh weight inhibition rate≥80% to 100%)	A (Fresh weight inhibition rate≥80% to 100%)	A (Fresh weight inhibition rate≥80% to 100%)	A (Fresh weight inhibition rate≥80% to 100%)	–	–	–	–	–
Cc1nnc(NC(=O)c2ccc(S(C)(=O)=O)c(SC(C)C)c2Cl)o1 [Compound 3-6, 2-chloro-3-(isopropylthio)-N-(5-methyl-1,3,4-oxadiazol-2-yl)-4-(methylsulfonyl)benzamide]	–	–	–	–	–	80 to 100%	80 to 100%	80 to 100%	80 to 100%	80 to 100%
Cc1nnc(NC(=O)c2ccc(S(C)(=O)=O)c([S+]([O-])C(C)C)c2Cl)o1 (stereo not drawn) [Compound 3-7, 2-chloro-3-(isopropylsulfinyl)-N-(5-methyl-1,3,4-oxadiazol-2-yl)-4-(methylsulfonyl)benzamide]	–	–	–	–	–	80 to 100%	80 to 100%	80 to 100%	80 to 100%	80 to 100%
